This is an account of results in ChEMBL document CHEMBL3627692, “Inhibition of mammalian carbonic anhydrase isoforms I-XIV with a series of phenolic acid esters” (Bioorg Med Chem, 2015).

One assay has as its target Carbonic anhydrase 13 (Mus musculus, UniProt Q9D6N1). Put plainly: Inhibition of mouse carbonic anhydrase 13 preincubated for 15 mins by stopped-flow CO2 hydration assay.
The target in a further assay is Carbonic anhydrase 2 (Homo sapiens, UniProt P00918). Briefly: Inhibition of human carbonic anhydrase 2 preincubated for 15 mins by stopped-flow CO2 hydration assay.
The next assay deals with Carbonic anhydrase 3 (Homo sapiens, UniProt P07451). Put plainly: Inhibition of human carbonic anhydrase 3 preincubated for 15 mins by stopped-flow CO2 hydration assay.
Carbonic anhydrase 3, sequence (P07451 whole entry, the tested form may be a part): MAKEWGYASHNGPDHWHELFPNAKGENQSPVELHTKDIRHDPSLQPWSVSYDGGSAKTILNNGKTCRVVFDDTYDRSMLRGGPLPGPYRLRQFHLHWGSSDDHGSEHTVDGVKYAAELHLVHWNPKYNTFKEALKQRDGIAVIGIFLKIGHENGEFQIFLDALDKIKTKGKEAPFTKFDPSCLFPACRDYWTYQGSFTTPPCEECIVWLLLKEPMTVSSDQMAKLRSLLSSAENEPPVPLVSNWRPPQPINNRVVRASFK
A further assay deals with Carbonic anhydrase 9 (Homo sapiens, UniProt Q16790). Put plainly: Inhibition of human catalytic domain of carbonic anhydrase 9 preincubated for 15 mins by stopped-flow CO2 hydration assay.
In a further assay the target is Carbonic anhydrase 1 (Homo sapiens, UniProt P00915). Briefly: Inhibition of human carbonic anhydrase 1 preincubated for 15 mins by stopped-flow CO2 hydration assay.
Carbonic anhydrase 1, sequence (P00915 whole entry, the tested form may be a part): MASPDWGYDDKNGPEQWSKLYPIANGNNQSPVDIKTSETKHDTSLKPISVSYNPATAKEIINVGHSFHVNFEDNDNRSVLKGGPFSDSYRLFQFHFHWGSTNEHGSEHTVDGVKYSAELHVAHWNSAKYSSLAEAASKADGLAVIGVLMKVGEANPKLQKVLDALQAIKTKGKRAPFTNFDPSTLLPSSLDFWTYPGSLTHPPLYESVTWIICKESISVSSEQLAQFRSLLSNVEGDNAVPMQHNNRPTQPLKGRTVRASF
The next assay concerns the target Carbonic anhydrase 12 (Homo sapiens, UniProt O43570). Put plainly: Inhibition of human catalytic domain of carbonic anhydrase 12 preincubated for 15 mins by stopped-flow CO2 hydration assay.
A further assay deals with Carbonic anhydrase 7 (Homo sapiens, UniProt P43166). Put plainly: Inhibition of human carbonic anhydrase 7 preincubated for 15 mins by stopped-flow CO2 hydration assay.
Carbonic anhydrase 7, sequence (P43166 whole entry): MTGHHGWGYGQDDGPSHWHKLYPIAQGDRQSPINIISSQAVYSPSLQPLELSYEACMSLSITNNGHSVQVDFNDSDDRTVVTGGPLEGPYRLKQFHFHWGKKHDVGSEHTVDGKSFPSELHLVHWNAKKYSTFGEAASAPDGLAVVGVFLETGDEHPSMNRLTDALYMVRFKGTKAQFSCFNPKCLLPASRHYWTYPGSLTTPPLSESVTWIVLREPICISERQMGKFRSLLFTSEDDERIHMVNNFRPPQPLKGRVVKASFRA
The target in assay [1] is Carbonic anhydrase 5A, mitochondrial (Homo sapiens, UniProt P35218). Briefly: Inhibition of human carbonic anhydrase 5A preincubated for 15 mins by stopped-flow CO2 hydration assay.
Carbonic anhydrase 5A, mitochondrial, sequence (P35218 whole entry): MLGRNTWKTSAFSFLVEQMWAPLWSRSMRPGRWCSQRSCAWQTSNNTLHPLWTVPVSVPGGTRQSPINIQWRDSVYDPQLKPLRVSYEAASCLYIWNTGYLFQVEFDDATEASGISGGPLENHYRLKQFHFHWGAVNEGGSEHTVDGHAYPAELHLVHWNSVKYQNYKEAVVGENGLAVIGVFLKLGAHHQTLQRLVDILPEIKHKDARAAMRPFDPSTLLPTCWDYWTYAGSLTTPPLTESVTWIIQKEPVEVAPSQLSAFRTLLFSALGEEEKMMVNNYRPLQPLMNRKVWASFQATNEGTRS
Assay [2] concerns the target Carbonic anhydrase 5B, mitochondrial (Homo sapiens, UniProt Q9Y2D0). Put plainly: Inhibition of human carbonic anhydrase 5B preincubated for 15 mins by stopped-flow CO2 hydration assay.
The target of the next assay is Carbonic anhydrase 14 (Homo sapiens, UniProt Q9ULX7). Put plainly: Inhibition of human carbonic anhydrase 14 preincubated for 15 mins by stopped-flow CO2 hydration assay.
Carbonic anhydrase 14, sequence (Q9ULX7 whole entry): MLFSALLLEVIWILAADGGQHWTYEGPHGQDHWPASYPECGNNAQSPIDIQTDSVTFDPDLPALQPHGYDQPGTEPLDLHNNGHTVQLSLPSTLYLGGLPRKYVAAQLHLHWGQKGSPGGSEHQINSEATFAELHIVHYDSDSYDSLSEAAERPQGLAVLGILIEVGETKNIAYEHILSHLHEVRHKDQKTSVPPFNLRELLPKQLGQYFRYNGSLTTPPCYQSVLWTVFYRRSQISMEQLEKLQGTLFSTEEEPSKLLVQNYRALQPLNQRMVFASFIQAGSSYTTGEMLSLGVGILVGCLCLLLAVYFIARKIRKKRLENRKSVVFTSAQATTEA
The next assay addresses Carbonic anhydrase 6 (Homo sapiens, UniProt P23280). Put plainly: Inhibition of human carbonic anhydrase 6 preincubated for 15 mins by stopped-flow CO2 hydration assay.
The target of the next assay is Carbonic anhydrase 4 (Homo sapiens, UniProt P22748). Put plainly: Inhibition of human carbonic anhydrase 4 preincubated for 15 mins by stopped-flow CO2 hydration assay.
Carbonic anhydrase 4, sequence (P22748 whole entry): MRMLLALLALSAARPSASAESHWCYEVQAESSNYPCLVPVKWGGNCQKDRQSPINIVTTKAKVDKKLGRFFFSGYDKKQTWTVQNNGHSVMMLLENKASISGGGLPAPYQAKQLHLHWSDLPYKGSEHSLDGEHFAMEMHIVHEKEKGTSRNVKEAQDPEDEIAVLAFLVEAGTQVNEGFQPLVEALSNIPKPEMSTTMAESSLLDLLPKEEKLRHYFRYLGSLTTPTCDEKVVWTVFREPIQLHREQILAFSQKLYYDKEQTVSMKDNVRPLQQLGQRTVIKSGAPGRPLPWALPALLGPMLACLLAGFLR

Carbonic anhydrase 13, sequence (Q9D6N1 whole entry): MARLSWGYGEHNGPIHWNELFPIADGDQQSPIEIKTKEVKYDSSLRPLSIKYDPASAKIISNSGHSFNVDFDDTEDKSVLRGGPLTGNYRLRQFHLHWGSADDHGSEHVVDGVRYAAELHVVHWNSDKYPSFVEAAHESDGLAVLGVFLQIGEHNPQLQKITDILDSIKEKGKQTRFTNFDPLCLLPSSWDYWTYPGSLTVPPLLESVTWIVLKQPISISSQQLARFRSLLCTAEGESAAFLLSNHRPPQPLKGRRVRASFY
Carbonic anhydrase 12, sequence (O43570 whole entry, the tested form may be a part): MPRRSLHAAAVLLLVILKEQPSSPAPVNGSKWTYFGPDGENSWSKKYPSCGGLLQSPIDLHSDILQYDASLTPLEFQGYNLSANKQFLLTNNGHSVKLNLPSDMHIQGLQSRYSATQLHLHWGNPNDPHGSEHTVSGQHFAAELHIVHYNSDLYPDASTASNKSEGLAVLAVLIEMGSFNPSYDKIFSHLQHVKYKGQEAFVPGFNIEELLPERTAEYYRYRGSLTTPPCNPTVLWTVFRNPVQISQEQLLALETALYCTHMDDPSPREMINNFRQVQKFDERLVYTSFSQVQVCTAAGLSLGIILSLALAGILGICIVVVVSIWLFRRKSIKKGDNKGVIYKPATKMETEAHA
Carbonic anhydrase 5B, mitochondrial, sequence (Q9Y2D0 whole entry): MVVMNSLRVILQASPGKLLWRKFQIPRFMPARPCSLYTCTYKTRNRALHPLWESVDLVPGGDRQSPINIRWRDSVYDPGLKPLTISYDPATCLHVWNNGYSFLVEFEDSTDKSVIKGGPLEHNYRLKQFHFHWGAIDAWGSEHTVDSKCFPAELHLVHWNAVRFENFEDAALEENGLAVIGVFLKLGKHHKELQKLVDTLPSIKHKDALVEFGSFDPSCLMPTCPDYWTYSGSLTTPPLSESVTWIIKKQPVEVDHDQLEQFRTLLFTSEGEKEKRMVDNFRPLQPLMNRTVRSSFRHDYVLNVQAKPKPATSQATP
Carbonic anhydrase 6, sequence (P23280 whole entry): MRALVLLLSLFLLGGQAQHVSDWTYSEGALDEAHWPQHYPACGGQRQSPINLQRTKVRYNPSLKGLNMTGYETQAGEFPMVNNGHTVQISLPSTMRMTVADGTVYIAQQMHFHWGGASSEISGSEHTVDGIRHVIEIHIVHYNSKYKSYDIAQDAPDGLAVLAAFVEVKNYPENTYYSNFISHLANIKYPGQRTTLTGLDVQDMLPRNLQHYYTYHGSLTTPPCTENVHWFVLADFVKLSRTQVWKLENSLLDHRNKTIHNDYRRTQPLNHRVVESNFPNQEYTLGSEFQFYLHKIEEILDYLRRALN

As to `O=C(/C=C/c1ccc(O)c(O)c1)OCCc1ccc(OCCc2ccc(O)cc2)cc1`, the Ki was 0.84 µM at Carbonic anhydrase 13; more than 50 µM on Carbonic anhydrase 2; more than 50 µM at Carbonic anhydrase 3; 0.93 µM on Carbonic anhydrase 9; 5.23 µM at Carbonic anhydrase 1.
Turning to `O=C(/C=C/c1ccc(O)cc1)OCCc1cccc(O)c1`, the inhibition constant Ki was 11.6 µM at Carbonic anhydrase 13; more than 50 µM at Carbonic anhydrase 2; more than 50 µM on Carbonic anhydrase 3; 0.82 µM on Carbonic anhydrase 9; 3.66 µM at Carbonic anhydrase 1.
For the compound `O=C(/C=C/c1ccc(O)c(O)c1)OCCc1cccc(OCCc2cccc(O)c2)c1`, the inhibitory constant (Ki) at Carbonic anhydrase 13 is 0.9 µM; on Carbonic anhydrase 2 it was more than 50 µM; at Carbonic anhydrase 3, more than 50 µM; on Carbonic anhydrase 9, 0.97 µM; at Carbonic anhydrase 1, 9.62 µM.
As for `COc1cc(/C=C/C(=O)OCCc2cccc(O)c2)ccc1O`, the Ki at Carbonic anhydrase 13 is 0.91 µM; on Carbonic anhydrase 2 it was more than 50 µM; on Carbonic anhydrase 3, more than 50 µM; on Carbonic anhydrase 9, 0.99 µM; at Carbonic anhydrase 1, more than 50 µM.
As for `O=C(/C=C/c1ccc(O)cc1)OCCc1ccc(O)cc1`, the inhibition constant (Ki) on Carbonic anhydrase 13 is 13.9 µM; on Carbonic anhydrase 2 it was more than 50 µM; at Carbonic anhydrase 3 it was more than 50 µM; at Carbonic anhydrase 9, 0.71 µM; on Carbonic anhydrase 1 it was 3.87 µM.
As for `O=C(/C=C/c1ccc(O)cc1)OCc1ccccc1`, the Ki at Carbonic anhydrase 13 was 8.92 µM; on Carbonic anhydrase 12 it was 29.4 µM; on Carbonic anhydrase 7 it was 0.72 µM; in [1], 0.97 µM; at Carbonic anhydrase 2 it was more than 50 µM; in assay [2] it was 0.8 µM. The Ki on Carbonic anhydrase 14 was 0.81 µM; at Carbonic anhydrase 3 it was more than 50 µM; on Carbonic anhydrase 6, 0.73 µM; at Carbonic anhydrase 9 it was 0.86 µM; at Carbonic anhydrase 4, 18.7 µM; on Carbonic anhydrase 1, more than 50 µM.
Turning to `COc1cc(/C=C/C(=O)OCCc2ccc(O)cc2)ccc1O`, the Ki at Carbonic anhydrase 13 was 0.93 µM; at Carbonic anhydrase 2 it was more than 50 µM; at Carbonic anhydrase 3, more than 50 µM; on Carbonic anhydrase 9 it was 0.81 µM; on Carbonic anhydrase 1, more than 50 µM.
Regarding `COc1cc(/C=C/C(=O)OCc2ccccc2)ccc1O` [BENZYL FERULATE], the inhibitory constant (Ki) on Carbonic anhydrase 13 is 0.94 µM; at Carbonic anhydrase 2, more than 50 µM; on Carbonic anhydrase 3, more than 50 µM; at Carbonic anhydrase 9, 1.03 µM; on Carbonic anhydrase 1, more than 50 µM.

As usually defined, the Ki is the dissociation constant of the complex between target and ligand, obtained from inhibition or displacement. Lower therefore signals higher affinity.
